Peptide text beside a SMILES is read from it.
SMILES	logP
Cc1c[nH]c(=O)[nH]c1=O	-0.62
COCC(c1c(O)c2ccccc2oc1=O)c1c(O)c2ccccc2oc1=O	1.38
N#CC(Cl)(Cl)Cl	2.09
CCNc1nc(Cl)nc(NC(C)C)n1	2.61
c1ccc2c(N3CCCCC3)ncnc2c1	2.92
CN(C)C(=O)Nc1cccc(C(F)(F)F)c1	2.42
CCOC(=O)c1ccco1	1.52
CC(=O)Nc1ccc(O)c(C)c1C	0.57
OCCCc1nc2ccccc2[nH]1	1.25
COC1C(O)C(C)OC(OC2CCC3(C)C(CCC4C3CCC3(C)C(C5=CC(=O)OC5)CCC43O)C2)C1O (centres undefined)	2.1
CON(C)C(=O)Nc1ccc2c(c1)Cc1ccccc1-2	3.67
COC1C(OC(C)=O)CC(=O)OC(C)CC=CC=CC(O)C(C)CC(CC=O)C1OC1OC(C)C(OC2CC(C)(O)C(OC(=O)CC(C)C)C(C)O2)C(N(C)C)C1O (centres undefined)	2.39
CCOC(=O)CON=Cc1ccc(OCCOC(=O)CC)c(OC)c1	2.39
O[C@@H]1CCCC[C@H]1O	0.08
CN(C)C(=O)Nc1ccc(C(=O)c2ccccc2)cc1	2.59
Cc1ccccc1OC(=O)N(C)C	1.86
N#CCC(=O)c1ccccc1	0.97
CC(=O)CC(=O)C(C)(C)C	1.67
CCN(C(=O)SCc1ccccc1)C(C)C(C)C (centres undefined)	4.6
Nc1ccc2cc3ccc(N)cc3nc2c1	1.83
CCN(CCO)c1ccccc1	2.1
CCc1cc(OP(=S)(OC)OC)ccc1[N+](=O)[O-]	3.74
C=CBr	1.57

SMILES	logP
CCOS(=O)(=O)c1ccc(C)cc1	1.81
CC(=O)OC1CCCCC1NC(=O)N(CCCl)N=O (centres undefined)	1.98
Cn1c(=O)sc2ccccc21	1.98
CC1(C)N=C(N)N=C(N)N1c1ccc(F)cc1	0.37
O=C(O)COc1ccccc1F	1.39
CCc1ccc(C(=O)OCCN(C)C)cc1	3.15
CC(C)(CCC(=O)O)C(=O)O	0.67
O=C(O)Cn1cccc1	0.7
CC(C)CCOC(=O)c1cc(O)c(O)c(O)c1	2.8
O=C1NCN(c2ccccc2)C12CCN(CCCC(c1ccc(F)cc1)c1ccc(F)cc1)CC2	5.86
CN(C)C(N(C)C)=S(I)c1ccccc1F (centres undefined)	-0.55
CCCCCCCOC(=O)C(C(=O)OCCCCCCC)=C1SCCS1	7.6
CNC(=O)Oc1ccc(C(C)(C)C)cc1	3.06
Cc1ccccc1C=C[N+](=O)[O-]	2.63
CC1(C)C=Cc2ccccc2O1	3.31
CCBr	1.61
COc1noc2c1CNCC2	-0.04
CCCCNc1nc(NC)nc(SC(F)F)n1	3.7
CCOc1ccccc1O	1.68
CCOc1cccc(Cl)n1	2.55
O=[N+]([O-])c1ccc(OC2OC(CO)C(O)C(O)C2O)cc1 (centres undefined)	-0.44
Cc1cccc(OC(=O)N(C)C)c1	2.05
Clc1cncc(Cl)c1	2.56

SMILES	logP
O=C(c1ccccc1)c1ccccc1O	3.52
Nc1ccc(C(=O)Oc2ccccc2)c(O)c1	3.15
NC(=O)c1cnc2ccccc2n1	0.98
S=C1CCCCN1	0.13
O=C(Nc1ccccc1)N(Cc1ccc(Cl)cc1)C1CCCC1	4.82
CC(=O)N[C@@H](Cc1ccccc1)C(=O)N[C@H](C(N)=O)C(C)C (Ac-Phe-Val-NH2)	0.43
CCOC(=O)C(O)c1ccccc1 (centres undefined)	1.53
CNC(=O)Oc1ccccc1[N+](=O)[O-]	1.02
OCCN1CCN(C2CC(c3ccc(F)cc3)c3ccc(C(F)(F)F)cc32)CC1 (centres undefined)	4.39
O=C(O)COc1ccc(O)cc1	0.65
O=C(O)c1ccccc1C(=O)O	0.73
Cc1ccno1	0.45
O=[N+]([O-])c1ccc(O)c(O)c1	1.66
Cc1cccc(N(C)C)c1	2.8
CCCCCCNC(=O)c1[nH]nc(C)c1[N+](=O)[O-]	2.46
O=C(Nc1ccccc1)NC1CC1	1.65
O=C(O)Cc1ccccc1Nc1c(Cl)cc(O)cc1Cl	3.7
O=C(NC(CO)C(O)c1ccc([N+](=O)[O-])cc1)C(Cl)(Cl)Cl (centres undefined)	1.97
CC(C)c1ccc(C(=O)O)cc1	3.4
CS(=O)(=O)Nc1ccc(Cl)cc1	1.85
Nc1nc(N)nc(-c2cccc([N+](=O)[O-])c2)n1	1.57
COc1ccccc1OC(C)=O	1.38
CCOC(=O)C(C#N)=Cc1ccccc1	2.43

SMILES	logP
O=C(NC(CO)C(O)c1ccc([N+](=O)[O-])cc1)C(Br)(Br)Br (centres undefined)	2.17
CCCNc1ccccc1	2.45
OC(O)C(Cl)(Cl)Cl	0.99
CN(C)c1nc2c3cccnc3ccc2n1C	2.28
N#C/C=C/c1ccccc1	1.96
O=C(O)COc1ccc(Br)cc1	2.45
CC(=O)C(=Cc1ccccc1Cl)C(C)=O	2.19
CC(=O)Nc1cccs1	1.1
O=NN(c1ccccc1)c1ccccc1	3.13
CON(C)C(=O)Nc1ccc(N)cc1	-0.16
Nc1cnnc2ccccc12	1.04
CCCCCCOc1ccc(NC(=O)OCCN2CCCCC2)cc1	5.41
O=C(O)C(c1ccc(-c2ccccc2)cc1)C(O)c1ccccc1F (centres undefined)	3.77
CN1CC[C@]23c4c5ccc(O)c4O[C@H]2C(=O)CC[C@@]3(O)[C@H]1C5	0.83
Cc1ccc2c(c1)nc(N)n2C	1.47
NS(=O)(=O)CCCOc1ccc([N+](=O)[O-])cc1	0.97
C=CC(=O)OC	0.8
CC(=O)Nc1cccc(OCC(=O)O)c1	0.48
Cc1cnnc2ccc(Cl)cc12	1.96
CSc1cccc(-c2nc(N)nc(N)n2)c1	2.16
CCn1nnc(Oc2ccc(NC(=O)N(C)C)cc2Cl)n1	1.7
CNC(=O)Oc1ccc(Cl)c(Cl)c1	2.8
OC(c1ccccc1)c1ccccn1 (centres undefined)	1.52

SMILES	logP
CC1=C(O)OC2CC(C)C3C=CC(=O)C3(C)C(O)C12 (centres undefined)	1.13
CCN(CC)C(=O)N(CC)N=O	1.54
O=[N+]([O-])C=Cc1cccs1	1.96
Clc1ccccc1-c1ccccc1	4.53
CCN(CC)CC(F)(F)F	1.88
CC(C)(C)c1cc(O)ccc1[N+](=O)[O-]	3.65
CC1(C)S[C@@H]2[C@H](NC(=O)C(C(=O)Oc3ccc4c(c3)CCC4)c3ccccc3)C(=O)N2[C@H]1C(=O)O (some centres undefined)	3.77
COP(=S)(OC)SCC(=O)N(C)C=O	1.48
CCOP(=O)(OCC)SCSCC	2.07
O=NN(CCCl)C(=O)NC1CCC(C(=O)O)CC1 (centres undefined)	1.68
CN1CCN(C)CC1	-0.4
FC(F)(F)C(Cl)Br (centres undefined)	2.3
CCN(CC)CCCN(c1ccccc1)C1Cc2ccccc2C1	4.86
CC(=O)Nc1ccccc1C	0.85
CCCOP(OCCC)OCCC	2.26
Oc1ccc(Br)cc1Br	3.22
Brc1c(Br)c(Br)c(Br)c(Br)c1Br	6.07
CN	-0.57
CN(C)C(=N)N(C)C	0.41
O=C(C(=O)c1ccccc1)c1ccccc1	3.38
c1ccc(OP2OCCO2)cc1	1.42
NNC(=O)c1ccnc(Cc2ccccc2)c1	1.01
Cc1ccccc1OCC(=O)O	1.98

SMILES	logP
O=C(O)c1cc(Cl)ccc1O	3.09
COc1cccc(O)c1	1.34
C[C@]12CC[C@H](O)C[C@H]1CC[C@@H]1[C@@H]2C[C@@H](O)[C@]2(C)[C@@H](C3=CC(=O)OC3)CC[C@]12O	1.1
CC(C(=O)O)c1ccc(N2CC3=C(CCCC3)C2=O)cc1 (centres undefined)	3.07
c1cc2ccc3ccc4ccc5cccc6c(c1)c2c3c4c56	6.63
O=[N+]([O-])c1cccc(SSc2cccc([N+](=O)[O-])c2)c1	4.06
NCCCCc1cccnc1	0.88
CNC(=O)Oc1ccccc1OC(C)C	1.52
CCOc1c(OC)cc(CCN)cc1OC	1.11
O=[N+]([O-])C=Cc1ccco1	1.56
Cc1cccc(OCC(O)CNC(C)C)c1 (centres undefined)	1.93
Clc1cc(Cl)nc(Cl)c1	2.68
CN(C)C(=O)OCc1ccc(I)cc1	3.32
COc1ccccc1NCCO	1.5
CCC(=O)C1(c2cccc(OC(=O)CC(C)(C)C)c2)CCN(C)CC1	3.17
CC(Cl)[N+](=O)[O-] (centres undefined)	1.1
Cc1[nH]cnc1CSCCNc1nc(=O)cc[nH]1	0.02
COc1ccc(Br)cc1-c1nc(N)nc(N)n1	1.53
O=c1nn[nH]c2ccccc12	0.83
N#Cc1cc(-c2ccccc2)nnc1NCCN1CCOCC1	1.89
COP(=S)(OC)Oc1cc(C)c([N+](=O)[O-])c(C)c1	3.89
C#CC(C)OC(=O)Nc1ccc(OCC)c(OCC)c1 (centres undefined)	2.68
CCCN(CCC)C1CCOc2ccc(O)cc21 (centres undefined)	3.17

SMILES	logP
c1cn[nH]c1	0.26
O=C(O)Cc1sc(-c2ccccc2)nc1-c1ccc(Cl)cc1	5.19
Cn1c(N)nc2cc(Cl)ccc21	2.09
Brc1nc(Br)c(Br)[nH]1	1.96
S=C(N/N=C/c1cc[nH]c1)Nc1ccccc1	3.73
CCC(c1ccccc1)c1c(O)c2ccccc2oc1=O (centres undefined)	3.62
c1ccc(C23CC4CC(CC(C4)C2)C3)cc1	5.55
c1ccc(-c2cc3ccccc3[nH]2)nc1	3.33
Cc1n[nH]c(C(=O)NCCc2ccccc2)c1[N+](=O)[O-]	1.82
CN1CCN(Cc2ccc(C(=O)OCn3ncc4c(=O)[nH]cnc43)cc2)CC1	1.47
OC(c1ccccc1)C1CCCCN1 (centres undefined)	1.58
O=[N+]([O-])c1ccc(Nc2ccccc2)cc1	3.74
COC(=O)NS(=O)(=O)c1ccc(N)cc1	-0.27
CN(C)C(N(C)C)=S(I)c1cccc(Br)c1 (centres undefined)	0.01
S=C=Nc1ccccc1	3.28
COP(=O)(OC)OC	-0.65
O=C(Cn1cnc([N+](=O)[O-])n1)N1CCOCC1	-0.96
CC1OC(OC2C(O)CC(OC3C(O)CC(OC4CCC5(C)C(CCC6C5CC(O)C5(C)C(C7=CC(=O)OC7)CCC65O)C4)OC3C)OC2C)CC(OC(=O)C2OC(O)CC(O)C2O)C1O (centres undefined)	-1.77
CCCCCNC(=O)c1ccc(S(N)(=O)=O)cc1	1.51
BrC(Br)(Br)Br	3.42
Nc1ccc2[nH]ccc2c1	0.7
